# PubChem BioAssay (NCI)
#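 Method: 48-hour compound exposure of cells in 96-well plates, five concentrations, linear interpolation of endpoints. The concentration for full growth arrest is given as TGI.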
# Columns and labels:
# Assay in all cases: NCI tumour cell line growth inhibition, 48 h
# 786-0 renal = system: 786-0 renal
# A498 renal = system: A498 renal
# A549 NSCLC = system: A549 NSCLC
# ACHN renal = system: ACHN renal
# CCRF-CEM leukemia = system: CCRF-CEM leukemia
# COLO 205 colon = system: COLO 205 colon
# DLD-1 colon = system: DLD-1 colon
# DMS 114 small cell lung = system: DMS 114 small cell lung
# DMS 273 small cell lung = system: DMS 273 small cell lung
# EKVX NSCLC = system: EKVX NSCLC
# HCC-2998 colon = system: HCC-2998 colon
# HCT-116 colon = system: HCT-116 colon
# HCT-15 colon = system: HCT-15 colon
# HOP-18 NSCLC = system: HOP-18 NSCLC
# HOP-62 NSCLC = system: HOP-62 NSCLC
# HOP-92 NSCLC = system: HOP-92 NSCLC
# HT29 colon = system: HT29 colon
# IGROV1 ovarian = system: IGROV1 ovarian
# K-562 leukemia = system: K-562 leukemia
# KM12 colon = system: KM12 colon
# KM20L2 colon = system: KM20L2 colon
# LOX IMVI melanoma = system: LOX IMVI melanoma
# LXFL 529 NSCLC = system: LXFL 529 NSCLC
# M14 melanoma = system: M14 melanoma
# M19-MEL melanoma = system: M19-MEL melanoma
# MALME-3M melanoma = system: MALME-3M melanoma
# MOLT-4 leukemia = system: MOLT-4 leukemia
# NCI-H226 lung = system: NCI-H226 lung
# NCI-H23 lung = system: NCI-H23 lung
# NCI-H460 lung = system: NCI-H460 lung
# NCI-H522 lung = system: NCI-H522 lung
# OVCAR-3 ovarian = system: OVCAR-3 ovarian
# OVCAR-4 ovarian = system: OVCAR-4 ovarian
# OVCAR-5 ovarian = system: OVCAR-5 ovarian
# OVCAR-8 ovarian = system: OVCAR-8 ovarian
# RXF 393 renal = system: RXF 393 renal
# RXF-631 renal = system: RXF-631 renal
# SF-268 CNS = system: SF-268 CNS
# SF-295 CNS = system: SF-295 CNS
# SF-539 CNS = system: SF-539 CNS
# SK-MEL-2 melanoma = system: SK-MEL-2 melanoma
# SK-MEL-28 melanoma = system: SK-MEL-28 melanoma
# SK-MEL-5 melanoma = system: SK-MEL-5 melanoma
# SK-OV-3 ovarian = system: SK-OV-3 ovarian
# SN12C renal = system: SN12C renal
# SNB-19 CNS = system: SNB-19 CNS
# SNB-75 CNS = system: SNB-75 CNS
# SNB-78 CNS = system: SNB-78 CNS
# TK-10 renal = system: TK-10 renal
# U251 CNS = system: U251 CNS
# UACC-257 melanoma = system: UACC-257 melanoma
# UACC-62 melanoma = system: UACC-62 melanoma
# UO-31 renal = system: UO-31 renal
# XF 498 CNS = system: XF 498 CNS
structure (smiles),measurement,setting,value
O=C(CCc1nnc2s/c(=C\c3ccccc3[N+](=O)[O-])c(=O)n12)Nc1cc(Cl)c(Cl)cc1Cl,TGI,786-0 renal,31.3 µM
same,TGI,A498 renal,53.6 µM
same,TGI,A549 NSCLC,> 100 µM
same,TGI,ACHN renal,> 100 µM
same,TGI,CCRF-CEM leukemia,82.6 µM
same,TGI,COLO 205 colon,> 100 µM
same,TGI,DLD-1 colon,66.6 µM
same,TGI,DMS 114 small cell lung,> 100 µM
same,TGI,DMS 273 small cell lung,> 100 µM
same,TGI,EKVX NSCLC,> 100 µM
same,TGI,HCC-2998 colon,> 100 µM
same,TGI,HCT-116 colon,31.4 µM
same,TGI,HCT-15 colon,> 100 µM
same,TGI,HOP-18 NSCLC,94.4 µM
same,TGI,HOP-62 NSCLC,64.1 µM
same,TGI,HOP-92 NSCLC,51.2 µM
same,TGI,HT29 colon,> 100 µM
same,TGI,IGROV1 ovarian,> 100 µM
same,TGI,K-562 leukemia,72 µM
same,TGI,KM12 colon,43.4 µM
same,TGI,KM20L2 colon,> 100 µM
same,TGI,LOX IMVI melanoma,46.9 µM
same,TGI,LXFL 529 NSCLC,53.8 µM
same,TGI,M14 melanoma,> 100 µM
same,TGI,M19-MEL melanoma,> 100 µM
same,TGI,MALME-3M melanoma,> 100 µM
same,TGI,MOLT-4 leukemia,71.6 µM
same,TGI,NCI-H226 lung,40.6 µM
same,TGI,NCI-H23 lung,> 100 µM
same,TGI,NCI-H460 lung,75.7 µM
same,TGI,NCI-H522 lung,> 100 µM
same,TGI,OVCAR-3 ovarian,35.8 µM
same,TGI,OVCAR-4 ovarian,34.6 µM
same,TGI,OVCAR-5 ovarian,> 100 µM
same,TGI,OVCAR-8 ovarian,89.9 µM
same,TGI,RXF 393 renal,57.6 µM
same,TGI,RXF-631 renal,> 100 µM
same,TGI,SF-268 CNS,78.1 µM
same,TGI,SF-295 CNS,49.5 µM
same,TGI,SF-539 CNS,46 µM
same,TGI,SK-MEL-2 melanoma,> 100 µM
same,TGI,SK-MEL-28 melanoma,> 100 µM
same,TGI,SK-MEL-5 melanoma,> 100 µM
same,TGI,SK-OV-3 ovarian,> 100 µM
same,TGI,SN12C renal,63.8 µM
same,TGI,SNB-19 CNS,74.3 µM
same,TGI,SNB-75 CNS,55.8 µM
same,TGI,SNB-78 CNS,> 100 µM
same,TGI,TK-10 renal,87.9 µM
same,TGI,U251 CNS,30.8 µM
same,TGI,UACC-257 melanoma,> 100 µM
same,TGI,UACC-62 melanoma,> 100 µM
same,TGI,UO-31 renal,91.4 µM
same,TGI,XF 498 CNS,58 µM
